According to patent publication US7671085B2, “Non-steroidal farnesoid X receptor modulators and methods for the use thereof” (The Salk Institute for Biological Studies, priority 2002, dated 2010):
“Also recorded” adds a separate entry of the source.

Molecular target: T1, FXR (Homo sapiens, UniProt Q96RI1)
T1 construct: using a full length FXR on a natural response element; expressed in transfected cells
T1 sequence (Q96RI1 1-486): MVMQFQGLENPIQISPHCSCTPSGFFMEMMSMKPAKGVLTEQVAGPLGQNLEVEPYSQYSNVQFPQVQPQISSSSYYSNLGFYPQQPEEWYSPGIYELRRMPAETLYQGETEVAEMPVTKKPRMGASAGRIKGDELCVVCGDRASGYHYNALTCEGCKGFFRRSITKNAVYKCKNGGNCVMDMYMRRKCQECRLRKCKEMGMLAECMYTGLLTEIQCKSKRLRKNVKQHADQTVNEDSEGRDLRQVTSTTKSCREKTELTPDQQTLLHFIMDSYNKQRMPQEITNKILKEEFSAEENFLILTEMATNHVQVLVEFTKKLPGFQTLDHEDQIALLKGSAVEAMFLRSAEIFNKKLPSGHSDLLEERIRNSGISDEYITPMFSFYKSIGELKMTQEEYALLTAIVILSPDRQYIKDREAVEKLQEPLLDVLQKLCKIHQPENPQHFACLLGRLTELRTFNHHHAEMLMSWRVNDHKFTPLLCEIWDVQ
Test: cell-based FXR transcription assay, FXR responsive promoter linked to luciferase reporter
Details: for EC50 / RE^a: cell-based FXR reporter assay; for EC50: determined with Prism 3.0; for RE^a: footnote a not given; for FXR activation, in words: cell-based reporter assay, SAR discussion
Excerpt: In addition to ensuring that only cell permeable compounds were selected for further optimization, this approach allows for the detection of FXR activation in a natural system (i.e., correct folding of the protein and in the presence of a complete compliment of co-activators and co-repressors).
The feasibility of creating high throughput screens (HTS) for ORs was explored using FXR as a candidate orphan receptor (OR) with a known activator, chenodeoxycholic acid (CDCA) as a ligand. The screen is based on the co-transfection of a full-length receptor with the reporter vector containing a natural hormone response element under a minimal eukaryotic promoter. […] Using this 384-well format, the high throughput screening (HTS) approach to FXR as a candidate OR was employed. […] A central question in the feasibility studies is whether this library is suitable for screening for nuclear receptor ligands. Samples of this library were first reformatted into a 384-well format and then subjected to the FXR cell-based assays described above and assessed for FXR-mediated transcriptional activity. Cells were exposed to approximately 10 μM of sample for 18 hrs prior to washing and luciferase analysis.
EC50 values were determined with Prism 3.0 software via the activity of the subject compound in the previously described cell based assay.

COC(=O)/C=C/c1cccc(N(Cc2ccc(-c3ccccc3OC)cc2)C(=O)C2CCCCC2)c1 [Compound 218]
EC50: 0.359 µM
RE^a: 0.49

COC(=O)C=Cc1cccc(N(Cc2ccc(C=Cc3c(F)cccc3F)cc2)C(=O)C2CCCCC2)c1 [Compound 189]
RE^a: 0.94
FXR activation, in words: excellent activity

COC(=O)C=Cc1cccc(N(Cc2ccc(C=Cc3ccc(C(C)(C)C)cc3)cc2)C(=O)C2CCCCC2)c1 [Compound 123]
RE^a: 0.29

COC(=O)C=Cc1cccc(N(C)C(=O)C2CCCCC2)c1 [Compound 147]
RE^a: 0.09

COC(=O)/C=C/c1cccc(N(Cc2ccc(-c3cccc(Cl)c3)cc2)C(=O)C2CCCCC2)c1 [Compound 232]
RE^a: 1.56
FXR activation, in words: excellent activity

COC(=O)/C=C/c1cccc(N(Cc2ccc(-c3ccc(C)cc3)cc2)C(=O)NC(C)C)c1 [Compound 237]
RE^a: 0.80

COC(=O)C=Cc1cccc(N(Cc2ccc(CCC(=O)OC(C)(C)C)cc2)C(=O)C2CCCCC2)c1 [Compound 159]
RE^a: 1.56

COC(=O)C=Cc1cccc(N(Cc2ccc(C=CC(=O)OC(C)(C)C)cc2)C(=O)C2CC2)c1 [Compound 140]
RE^a: 1.68

COc1c(CN(C(=O)C2CC2)c2cccc(/C=C/C#N)c2)ccc2c1OC(C)(C)C=C2 [Compound 34]
FXR activation, in words: inactive

COC(=O)C=Cc1cccc(N(Cc2ccc(C=Cc3ccccc3F)cc2)C(=O)C2CCCCC2)c1 [Compound 192]
RE^a: 1.41
FXR activation, in words: excellent activity; also recorded: among the most active

COC(=O)/C=C/c1cccc(N(Cc2cc(OC)cc(OC)c2)C(=O)C2CCCCC2)c1 [Compound 118]
RE^a: 0.11

COc1c(CN(C(=O)C2CCCCC2)c2ccccc2)ccc2c1OC(C)(C)C=C2 [Compound 27]
FXR activation, in words: among the most active at this stage

COC(=O)/C=C/c1cccc(N(Cc2ccc(-c3cccc(C)c3)cc2)C(=O)C(C)C)c1 [Compound 239]
RE^a: 1.09

COC(=O)C=Cc1cccc(N(Cc2ccc(C=Cc3ccccn3)cc2)C(=O)C(C)C)c1 [Compound 208]
RE^a: 0.62

COC(=O)/C=C/c1cccc(N(Cc2ccc(/C=C/c3c(F)cccc3F)cc2)C(=O)C(C)C)c1 [Compound 190]
EC50: 0.108 µM
RE^a: 0.79
FXR activation, in words: excellent activity

COC(=O)/C=C/c1cccc(N(Cc2ccc(/C=C/c3ccccc3)cc2)C(=O)C(C)C)c1 [Compound 198]
RE^a: 1.33
FXR activation, in words: excellent activity

COC(=O)/C=C/c1cccc(N(Cc2ccc(-c3ccc(C(C)(C)C)cc3)cc2)C(=O)C(C)C)c1 [Compound 263]
RE^a: 0.59

COC(=O)/C=C/c1cccc(N(Cc2ccc3c(c2OC)OC(C)(C)C=C3)S(=O)(=O)c2ccc(C)cc2)c1 [Compound 82]
FXR activation, in words: inactive

COC(=O)/C=C/c1cccc(N(Cc2cccc(/C=C/C(=O)OC(C)(C)C)c2)C(=O)C2CCCCC2)c1 [Compound 107]
FXR activation, in words: only micromolar potency

COC(=O)/C=C/c1cccc(N(Cc2ccc(/C=C/c3c(C)cc(C)cc3C)cc2)C(=O)NC(C)C)c1 [Compound 197]
RE^a: 0.14

COC(=O)/C=C/c1cccc(N(Cc2ccc(/C=C/c3c(Cl)cccc3Cl)cc2)C(=O)C(C)C)c1 [Compound 178]
RE^a: 0.14

COC(=O)/C=C/c1cccc(N(Cc2ccc(-c3cccc(C)c3)cc2)C(=O)C2CCCCC2)c1 [Compound 238]
RE^a: 1.43
FXR activation, in words: excellent activity

COC(=O)/C=C/c1cccc(N(Cc2ccc(/C=C/c3ccc(C)cc3)cc2)C(=O)C(C)C)c1 [Compound 175]
EC50: 1.41 µM
RE^a: 0.37

COC(=O)C=Cc1cccc(N(Cc2ccc3c(c2OC)OC(C)(C)C=C3)C(=O)c2ccccc2)c1 [Compound 68]
RE^a: 0.83

COC(=O)/C=C/c1cccc(N(Cc2ccc(/C=C/c3ccc(C)cc3)cc2)C(=O)C2CCCCC2)c1 [Compound 174]
RE^a: 0.83
FXR activation, in words: among the least active

COC(=O)/C=C/c1cccc(N(Cc2ccc(-c3cccc(C(C)=O)c3)cc2)C(=O)C2CCCCC2)c1 [Compound 127]
RE^a: 1.30

COC(=O)C=Cc1cccc(N(Cc2ccc(C=CC(=O)OC(C)(C)C)cc2OC(C)=O)C(=O)C2CCCCC2)c1 [Compound 164]
RE^a: 0.16

COC(=O)/C=C/c1cccc(N(Cc2ccc(/C=C/c3ccc(C)cc3)cc2)C(=O)NC(C)C)c1 [Compound 176]
EC50: 3.57 µM
RE^a: 0.10

COC(=O)/C=C/c1cccc(N(Cc2ccc(-c3ccc(SC)cc3)cc2)C(=O)C(C)C)c1 [Compound 216]
RE^a: 0.98
FXR activation, in words: excellent activity

COC(=O)C=Cc1cccc(N(Cc2ccc(C=Cc3scnc3C)cc2)C(=O)C(C)C)c1 [Compound 211]
RE^a: 0.32

COC(=O)/C=C/c1cccc(N(Cc2ccc(-c3ccc(OC)cc3)cc2)C(=O)C(C)C)c1 [Compound 230]
RE^a: 1.21
FXR activation, in words: excellent activity

COC(=O)C=Cc1cccc(N(Cc2ccc(C=CC(=O)OC(C)(C)C)cc2OC)C(=O)C2CCCCC2)c1 [Compound 162]
RE^a: 0.14

COC(=O)C=Cc1cccc(N(Cc2cccc(Br)c2)C(=O)C2CCCCC2)c1 [Compound 113]
RE^a: 0.11

CCOC(=O)/C=C/c1cccc(N(Cc2ccc3c(c2OC)OC(C)(C)C=C3)C(=O)C2CC2)c1 [Compound 30]
FXR activation, in words: inactive

COC(=O)/C=C/c1cccc(N(Cc2ccc(/C=C/c3cc(C(F)(F)F)cc(C(F)(F)F)c3)cc2)C(=O)C(C)C)c1 [Compound 184]
RE^a: 0.13

COC(=O)/C=C/c1cccc(N(Cc2ccc(-c3ccc4c(c3)OCO4)cc2)C(=O)C(C)C)c1 [Compound 245]
RE^a: 1.25
FXR activation, in words: excellent activity

COC(=O)/C=C/c1cccc(N(Cc2ccc(-c3ccc(N(C)C)cc3)cc2)C(=O)C(C)C)c1 [Compound 260]
RE^a: 1.07
FXR activation, in words: excellent activity

COC(=O)C=Cc1cccc(N(Cc2ccc(C=Cc3ccccn3)cc2)C(=O)C2CCCCC2)c1 [Compound 207]
RE^a: 0.81

COC(=O)/C=C/c1cccc(N(Cc2ccc(-c3ccc(OC(F)(F)F)cc3)cc2)C(=O)C2CCCCC2)c1 [Compound 250]
RE^a: 1.04

COC(=O)/C=C/c1cccc(N(Cc2ccc(-c3cccc(OC)c3)cc2)C(=O)NC(C)C)c1 [Compound 225]
RE^a: 0.41

COC(=O)/C=C/c1cccc(N(Cc2ccc(/C=C/C(=O)OC(C)(C)C)cc2)C(=O)c2ccco2)c1 [Compound 144]
RE^a: 1.93

COC(=O)C=Cc1cccc(N(Cc2ccc(C(C)(C)C)cc2)C(=O)C2CCCCC2)c1 [Compound 148]
RE^a: 0.15

CC(C)(C)OC(=O)C=Cc1ccc(CN(C(=O)C2CCCCC2)c2cccc(C=CC(=O)OC(C)(C)C)c2)cc1 [Compound 134]
RE^a: 1.06
FXR activation, in words: marked decline in potency

COC(=O)C=Cc1cccc(N(Cc2ccccc2Br)C(=O)C2CCCCC2)c1 [Compound 114]
RE^a: 0.11

COC(=O)C=Cc1cccc(N(Cc2ccc(C=Cc3cccc(F)c3)cc2)C(=O)C2CCCCC2)c1 [Compound 201]
RE^a: 1.36
FXR activation, in words: excellent activity; also recorded: among the most active

COC(=O)C=Cc1cccc(N(Cc2ccc(C=CC(=O)OC(C)(C)C)cc2)C(=O)NCc2ccccc2)c1 [Compound 146]
RE^a: 0.27
FXR activation, in words: only marginal efficacy

CC(C)(C)OC(=O)C=Cc1ccc(CN(C(=O)C2CCCCC2)c2cccc(C=CC(N)=O)c2)cc1 [Compound 135]
RE^a: 0.50
FXR activation, in words: marked decline in potency

COC(=O)/C=C/c1cccc(N(Cc2ccc(/C=C/c3c(Cl)cccc3Cl)cc2)C(=O)NC(C)C)c1 [Compound 179]
EC50: 0.216 µM
RE^a: 0.15

CNC(=O)/C=C/c1cccc(N(Cc2ccc3c(c2OC)OC(C)(C)C=C3)C(=O)C2CC2)c1 [Compound 38]
FXR activation, in words: inactive

COC(=O)C=Cc1cccc(N(Cc2ccc(C=CC(=O)OC(C)(C)C)cc2OC(=O)c2ccccc2)C(=O)C2CCCCC2)c1 [Compound 165]
RE^a: 0.16

COCC=Cc1cccc(N(Cc2ccc(C=CC(=O)OC(C)(C)C)cc2)C(=O)C2CCCCC2)c1 [Compound 136]
RE^a: 1.68

COC(=O)/C=C/c1cccc(N(Cc2ccc(/C=C/c3cc(C(F)(F)F)cc(C(F)(F)F)c3)cc2)C(=O)NC(C)C)c1 [Compound 185]
RE^a: 0.13

COC(=O)/C=C/c1cccc(N(Cc2ccc(-c3ccc(F)c(F)c3)cc2)C(=O)NC(C)C)c1 [Compound 215]
RE^a: 0.23
